Measured values taken from article PMC6736568, “Discovery of Novel Anti-cryptosporidial Activities From Natural Products by in vitro High-Throughput Phenotypic Screening” (Frontiers in Microbiology, 2019).
Read-outs that look alike come from different tables or passages of the source.

Legend:
Cryptosporidium parvum = test: qRT-PCR assay of the growth of C. parvum in vitro in HCT-8 host cells (primary and secondary screening, EC50); assay type: cell-based; conditions: for inhibition at 10 µM: Cryptosporidium parvum, HCT-8; for % Inhibition (3.3 uM): secondary screening at 3.3 uM
[1] = primary screening at 10 uM, from Hs18S ΔCT
[2] = primary screening at 10 uM, treated vs control

| Molecule | Cytotoxicity (%) (HCT-8 host cells (Hs18S); [1]) | Hs18S ΔCT (HCT-8 host cells (Hs18S); [2]) | Inhibition (%) (Cryptosporidium parvum; primary screening at 10 uM) | further results |
| --- | --- | --- | --- | --- |
| C[C@H](CCC(=O)O)[C@H]1CC[C@H]2[C@@H]3[C@H](O)C[C@@H]4C[C@H](O)CC[C@]4(C)[C@H]3C[C@H](O)[C@]12C [CHOLIC ACID] | – | – | – | inhibition at 10 µM (Cryptosporidium parvum; primary screening at 10 uM, read-out: Inhibition (%)): 26.7% |
| O=c1c(O)c(-c2ccc(O)c(O)c2)oc2c(O[C@@H]3O[C@H](CO)[C@@H](O)[C@H](O)[C@H]3O)c(O)cc(O)c12 [GOSSYPIN] | -4.8% | -0.07 | -22.05% | – |
| O=C1CCC[C@@H]2[C@H]3C[C@@H](CN12)[C@@H]1CCCCN1C3.[O-][Cl+3]([O-])([O-])O [LUPANINE PERCHLORATE] | -6.1% | -0.09 | 10.49% | – |
| COc1cc2c(cc1-c1cc3cc4ccoc4cc3oc1=O)OCO2 [PACHYRRHIZIN] | -6.0% | -0.08 | 29.77% | – |
| C[C@]12CCC(=O)C[C@@H]1CC[C@@H]1[C@@H]2CC[C@]2(C)C(=O)CC[C@@H]12 [5alpha-ANDROSTAN-3,17-DIONE] | -0.1% | 0.00 | -13.88% | – |
| CC1(C)C2CC(=O)[C@]3(C)C(CC[C@@]4(C)[C@H](c5ccoc5)OC(=O)C5OC543)[C@@]2(C)[C@@H](O)C[C@H]1O (stereo partly drawn) | 4.7% | 0.07 | 69.64% | % Inhibition (3.3 uM) (Cryptosporidium parvum): 3% |
| C[C@H]1CC[C@@H](C(C)(C)O)CC2=C1CC[C@@H]2C [GUAIOL(-)] | – | – | – | Hs18S ΔCT (HCT-8 host cells (Hs18S)): 0.20; Cytotoxicity (%) (HCT-8 host cells (Hs18S); 10 µM): 12.7; Inhibition (%) (Cryptosporidium parvum; 10 µM): -22.71 |
| O=c1cc(-c2cc(O)c(O)c(O)c2)oc2cc(O)cc(O)c12 [HIERACIN] | – | – | -2.75% | Cytotoxicity (%) (HCT-8 host cells (Hs18S); 10 µM): 31.0% |
| CC12CCC(CC1=O)C2(C)C [CAMPHOR (1R)] | – | -0.22 | – | – |
| COc1ccc(/C=C/C(=O)c2ccc(O)cc2O)cc1 [2',4'-DIHYDROXY-4-METHOXYCHALCONE] | -99.8% | -1.00 | 14.88% | – |
| C[C@]12CC[C@H](O)C[C@@H]1CC[C@@H]1[C@@H]2CC[C@]2(C)C(=O)CC[C@@H]12 [EPIANDROSTERONE] | – | – | – | Hs18S ΔCT (HCT-8 host cells (Hs18S)): -0.05; inhibition at 10 µM (Cryptosporidium parvum): -36% |
| C[C@@H]1CC[C@@]2(OC1)O[C@H]1C[C@H]3[C@@H]4CC[C@H]5C[C@@H](O)CC[C@]5(C)C4=CC[C@]3(C)[C@H]1[C@@H]2C [3beta-HYDROXYISOALLOSPIROST-9(11)-ENE] | -12.6% | -0.17 | 6.79% | – |
| COc1cc(O)c(C(C)=O)c(O)c1 [4-O-METHYLPHLORACETOPHENONE] | 10.4% | 0.16 | 2.57% | – |
| COc1ccc(-c2cc(=O)c3c(OC)c(OC)c(OC)c(OC)c3o2)cc1 [TANGERITIN] | 8.0% | 0.12 | – | – |
| ABAMECTIN (avermectin B1a shown) | 33.4% | 0.59 | 97.65% | % Inhibition (3.3 uM) (Cryptosporidium parvum): -19% |
| C[C@@]1(O)CCOC(=O)C1 [MEVALONIC ACID LACTONE] | 16.5% | 0.26 | 26.69% | – |
| AVOCADYNOFURAN | 1.4% | 0.02 | -19.78% | – |
| LYSINE (L) HYDROCHLORIDE | -11.0% | -0.15 | -22.55% | – |
| COC(=O)C1=CO[C@@H](O[C@@H]2O[C@H](CO)[C@@H](O)[C@H](O)[C@H]2O)[C@H]2[C@@H]1C(=O)C[C@@H]2C [VERBENALIN] | 81.7% | 2.45 | -4.48% | – |

| Molecule | Cytotoxicity (%) (HCT-8 host cells (Hs18S); [1]) | Hs18S ΔCT (HCT-8 host cells (Hs18S); [2]) | Inhibition (%) (Cryptosporidium parvum; primary screening at 10 uM) | further results |
| --- | --- | --- | --- | --- |
| C[C@H](CC(=O)[C@@H]1OC1(C)C)[C@H]1C(=O)C[C@@]2(C)C3=CC[C@H]4C(C)(C)[C@@H](O[C@@H]5OC[C@@H](O)[C@H](O)[C@H]5O)CC[C@@]45C[C@@]35[C@@H](O)C[C@]12C [CIMICIFUGOSIDE H1] | 69.4% | 1.71 | 58.34% | – |
| COc1ccc(-c2coc3cc(OC)ccc3c2=O)cc1 [7,4'-DIMETHOXYISOFLAVONE] | 3.0% | 0.04 | 1.31% | – |
| NC[C@H]1O[C@H](O[C@H]2[C@H](O[C@@H]3O[C@H](CO)[C@@H](O)[C@H]3O)[C@@H](O)[C@H](N)C[C@@H]2N)[C@H](N)[C@@H](O)[C@@H]1O.O=S(=O)(O)O [RIBOSTAMYCIN SULFATE] | -2.0% | -0.03 | -35.94% | – |
| COc1cc2occ(-c3ccc(OC)c(OC)c3OC)c(=O)c2cc1OC [6,7,2',3',4'-PENTAMETHOXYISOFLAVONE] | -30.1% | -0.38 | 39.55% | – |
| O=C(O)CCCCCCCC(O)C(O)CCCCCCO (stereo not drawn) [ALEURETIC ACID] | – | – | 36.82% | Hs18S ΔCT (HCT-8 host cells (Hs18S)): 0.24; Cytotoxicity (%) (HCT-8 host cells (Hs18S); 10 µM): 15.2 |
| CC(=O)c1c(O)cc(O)cc1O [PHLORACETOPHENONE] | 26.5% | 0.44 | -25.30% | – |
| C=CCCCCCCCCCCCC(O)CC(O)COC(C)=O (stereo not drawn) [AVOCADENE ACETATE] | -38.4% | -0.47 | -0.39% | – |
| O=c1ccn([C@@H]2O[C@H](COP(=O)([O-])OP(=O)([O-])OP(=O)([O-])O)[C@@H](O)[C@H]2O)c(=O)[nH]1.[Na+].[Na+].[Na+] [URIDINE TRIPHOSPHATE TRISODIUM] | 14.5% | 0.23 | 91.48% | % Inhibition (3.3 uM) (Cryptosporidium parvum): 17% |
| C[C@@H](O)[C@H](N)C(=O)O [THREONINE (L)] | -19.5% | -0.26 | -20.50% | – |
| CN1CCc2cc3c(cc2[C@H]1[C@@H]1OC(=O)c2c1ccc1c2OCO1)OCO3 [BICUCULLINE (+)] | -169.4% | -1.43 | – | – |
| Cl.c1ccc2c(c1)CN1CCCC1=N2 [DEOXYPEGANINE HYDROCHLORIDE] | – | – | 36.29% | Hs18S ΔCT (HCT-8 host cells (Hs18S)): -0.06; Cytotoxicity (%) (HCT-8 host cells (Hs18S); 10 µM): -4.6 |
| CC(=O)NCCc1ccc(O)c(-c2c(O)c(O)c3c(c2O)C(=O)c2c(cc(O)c(C(=O)O)c2C(=O)O)C3=O)c1 [LACCAIC ACID A] | -6.6% | – | 21.81% | – |
| COc1cc(O)c(C(=O)/C=C/c2ccc(O)c(OC)c2)c(OC)c1 [2',4-DIHYDROXY-3,4',6'-TRIMETHOXYCHALCONE] | – | 0.09 | – | – |
| CN[C@@H](C)[C@H](O)c1ccccc1.Cl [EPHEDRINE (1R,2S) HYDROCHLORIDE] | – | – | 11.97% | – |
| CC1(C)C(=O)C=C[C@]2(C)[C@H]3CC[C@@]4(C)[C@H](c5ccoc5)OC(=O)[C@H]5O[C@]54[C@]3(C)C=C[C@@H]12 [7-DESACETOXY-6,7-DEHYDROGEDUNIN] | – | 5.31 | – | – |
| CC(=O)Oc1cc(-c2coc3cc(OC(C)=O)c(OC(C)=O)c(OC(C)=O)c3c2=O)cc(OC(C)=O)c1OC(C)=O [IRIGINOL HEXAACETATE] | – | -0.17 | – | – |
| CNCc1ccccc1.Cl [N-METHYLBENZYLAMINE HYDROCHLORIDE] | – | -0.08 | – | – |
| COc1cc(/C=C/C(=O)O)cc(OC)c1O [SINAPIC ACID] | – | 0.25 | – | – |
| MEPARTRICIN | – | -0.51 | – | – |

| Molecule | Cytotoxicity (%) (HCT-8 host cells (Hs18S); [1]) | Hs18S ΔCT (HCT-8 host cells (Hs18S); [2]) | Inhibition (%) (Cryptosporidium parvum; primary screening at 10 uM) | further results |
| --- | --- | --- | --- | --- |
| CC[C@H](CC[C@@H](C)[C@H]1CC[C@H]2[C@@H]3CC[C@H]4C[C@@H](O)CC[C@]4(C)[C@H]3CC[C@]12C)C(C)C [FUCOSTANOL] | -61.6% | -0.69 | – | – |
| Cl.NCCC[C@H](N)C(=O)O [ORNITHINE HYDROCHLORIDE] | – | – | -42.36% | – |
| Cc1cc(=O)oc2cc(O)ccc12 [HYMECHROME] | – | -0.28 | – | – |
| CCC(C)C(=O)O[C@@H]1C[C@@]2(C)[C@H](c3ccoc3)OC(=O)CC23OC2(C)OC34[C@H](OC(=O)C(C)C)[C@@]3(O)[C@@H](OC(=O)C5(C)OC5C)[C@@]5(C)C[C@]3(O)[C@@](C)([C@H]5CC(=O)OC)C14O2 (stereo partly drawn) [ENTANDROPHRAGMIN] | – | -0.12 | – | – |
| Cc1c(S(=O)(=O)[O-])oc2c1C(=O)C(=O)c1c-2ccc2c1CCCC2(C)C.[Na+] [TANSHINONE IIA SULFONATE SODIUM] | – | 0.01 | – | – |
| MONENSIN SODIUM (monensin A is shown) | – | – | 94.05% | % Inhibition (3.3 uM) (Cryptosporidium parvum): 99% |
| C=CCc1cc(OC)c2c(c1OC)OCO2 [APIOLE] | – | 0.06 | – | – |
| CCCCCCCCCCCC[C@@H](C(=O)O)[C@H](C)C(=O)O [ROCCELLIC ACID] | -4.1% | -0.06 | – | – |
| CC(=O)O[C@H]1C[C@@H](OC(C)=O)C(C)(C)C2C[C@@H](O)[C@]3(C)C(CC[C@@]4(C)[C@H](c5ccoc5)OC(=O)[C@H]5O[C@]543)[C@]21C (stereo partly drawn) [7-DEACETYLKHIVORIN] | -46.2% | -0.55 | – | – |
| COC1=C(OC)C(=O)C(C/C=C(\C)CC/C=C(\C)CC/C=C(\C)CC/C=C(\C)CC/C=C(\C)CC/C=C(\C)CC/C=C(\C)CC/C=C(\C)CC/C=C(\C)CCC=C(C)C)=C(C)C1=O [UBIDECARENEONE] | 21.3% | 0.35 | – | – |
| COC(=O)C[C@H]1C(C)(C)C(=O)[C@@H]2CC3=C(CC[C@]4(C)C3=CC(=O)O[C@H]4c3ccoc3)[C@@]1(C)C2=O [CARAPIN-8(9)-ENE] | – | -0.62 | – | – |
| COc1cc(/C=C/C(=O)O)ccc1O [FERULIC ACID] | – | -0.04 | – | – |
| COc1c(O)cc2oc3cc(O)c(CC=C(C)C)c(O)c3c(=O)c2c1CC=C(C)C [alpha-MANGOSTIN] | 95.1% | 4.36 | – | – |
| C=C1CC/C=C(\C)CC[C@@H]2[C@@H]1CC2(C)C [CARYOPHYLLENE [t(-)]] | 20.0% | 0.32 | – | – |
| CC1(C)C=Cc2c(c3c(c4c(=O)c(-c5ccc(O)c(O)c5)coc24)OC(C)(C)CC3)O1 [ISOPOMIFERIN] | -5.3% | -0.07 | – | – |
| ISOTECTORIGENIN, 7-METHYL ETHER | – | – | -18.66% | – |
| COc1cc2c(cc1OC)C1C(=O)c3c(O)cc4c(c3OC1CO2)C=CC(C)(C)O4 (stereo not drawn) [alpha-TOXICAROL (dl)] | – | 0.01 | – | – |
| HECOGENIN | – | -0.23 | – | – |
